# In patent US9452986B2, “6-heteroaryloxy- or 6-aryloxy-quinoline-2-carboxamides and method of use” (AbbVie Inc., priority 2014, dated 2016):
# Molecular target: recombinant human Nav1.7 (Homo sapiens (Human), UniProt Q15858)
# Assay: FRET-based membrane potential assay, recombinant human sodium channel Nav1.7
# Format: cell-based
# Details: HEK293 cells stably expressing recombinant human Nav1.7; veratridine + scorpion venom depolarization; read-out: FRET-Membrane Potential Nav1.7 IC50
# Method in brief: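 Channel activation used veratridine at its EC80, set by a dilution curve each experiment, together with Leiurus scorpion venom, added 3 min after compound. Membrane-potential ratio signals from FLIPR Tetra in HEPES-buffered HBSS were fitted to a four-parameter Hill equation for percent inhibition and IC50.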
# Sequence of recombinant human Nav1.7 (Q15858 whole entry): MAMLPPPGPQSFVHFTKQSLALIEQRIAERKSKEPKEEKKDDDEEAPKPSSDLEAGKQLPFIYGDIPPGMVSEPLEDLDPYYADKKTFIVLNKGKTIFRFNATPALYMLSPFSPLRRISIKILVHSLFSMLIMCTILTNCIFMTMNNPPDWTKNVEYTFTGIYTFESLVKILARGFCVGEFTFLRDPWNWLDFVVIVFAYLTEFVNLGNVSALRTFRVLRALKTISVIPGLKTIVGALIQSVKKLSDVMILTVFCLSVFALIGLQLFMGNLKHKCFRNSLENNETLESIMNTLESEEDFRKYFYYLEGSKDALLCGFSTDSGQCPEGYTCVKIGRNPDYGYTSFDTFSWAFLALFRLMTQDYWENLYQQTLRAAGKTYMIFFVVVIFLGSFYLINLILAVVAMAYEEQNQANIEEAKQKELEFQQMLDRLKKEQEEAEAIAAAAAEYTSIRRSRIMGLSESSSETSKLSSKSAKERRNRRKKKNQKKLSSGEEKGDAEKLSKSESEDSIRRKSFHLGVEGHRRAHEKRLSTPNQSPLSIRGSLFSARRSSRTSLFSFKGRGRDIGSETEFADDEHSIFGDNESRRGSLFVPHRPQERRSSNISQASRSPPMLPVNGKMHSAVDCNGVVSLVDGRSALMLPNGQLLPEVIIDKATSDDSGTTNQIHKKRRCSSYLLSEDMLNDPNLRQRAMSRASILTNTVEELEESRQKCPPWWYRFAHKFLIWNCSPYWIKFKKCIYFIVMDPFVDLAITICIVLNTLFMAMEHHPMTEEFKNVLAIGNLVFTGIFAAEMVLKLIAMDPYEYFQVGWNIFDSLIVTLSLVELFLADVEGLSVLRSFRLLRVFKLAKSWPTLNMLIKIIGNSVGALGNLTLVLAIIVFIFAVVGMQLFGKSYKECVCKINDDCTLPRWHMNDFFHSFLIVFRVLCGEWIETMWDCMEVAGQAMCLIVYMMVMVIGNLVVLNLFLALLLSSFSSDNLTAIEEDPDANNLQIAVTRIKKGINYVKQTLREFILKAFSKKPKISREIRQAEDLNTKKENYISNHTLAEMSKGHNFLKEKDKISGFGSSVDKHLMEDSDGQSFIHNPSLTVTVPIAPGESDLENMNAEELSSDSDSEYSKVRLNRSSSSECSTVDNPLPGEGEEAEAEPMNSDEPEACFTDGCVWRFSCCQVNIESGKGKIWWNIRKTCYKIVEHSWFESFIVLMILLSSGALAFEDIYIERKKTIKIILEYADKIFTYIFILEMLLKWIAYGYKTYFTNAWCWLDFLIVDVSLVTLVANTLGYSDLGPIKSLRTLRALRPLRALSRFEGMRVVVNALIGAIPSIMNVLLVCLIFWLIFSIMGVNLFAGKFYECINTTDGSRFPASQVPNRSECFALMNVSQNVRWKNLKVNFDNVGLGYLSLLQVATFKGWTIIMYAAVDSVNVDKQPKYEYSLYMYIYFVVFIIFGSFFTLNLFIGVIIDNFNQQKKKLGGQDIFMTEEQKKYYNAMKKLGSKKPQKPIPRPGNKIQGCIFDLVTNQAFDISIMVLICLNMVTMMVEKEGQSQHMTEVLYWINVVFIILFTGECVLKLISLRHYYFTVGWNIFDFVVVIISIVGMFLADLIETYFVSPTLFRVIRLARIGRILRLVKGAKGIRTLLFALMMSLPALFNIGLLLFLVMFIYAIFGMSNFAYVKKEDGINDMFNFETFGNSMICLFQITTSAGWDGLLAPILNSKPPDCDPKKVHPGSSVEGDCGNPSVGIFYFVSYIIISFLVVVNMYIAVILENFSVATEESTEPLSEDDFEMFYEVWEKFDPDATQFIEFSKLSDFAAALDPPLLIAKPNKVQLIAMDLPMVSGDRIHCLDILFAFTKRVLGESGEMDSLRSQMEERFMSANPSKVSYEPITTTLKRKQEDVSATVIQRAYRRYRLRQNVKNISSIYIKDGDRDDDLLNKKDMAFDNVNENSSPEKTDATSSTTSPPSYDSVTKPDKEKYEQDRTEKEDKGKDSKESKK
row,Structure (SMILES),IC50 [µM]
1,"O=C(c1ccc2cc(Oc3ccc(C(F)(F)F)cn3)ccc2n1)N1CC(F)(F)C1 [Example 508, (3,3-difluoroazetidin-1-yl)(6-{[5-(trifluoromethyl)pyridin-2-yl]oxy}quinolin-2-yl)methanone]",3.65
2,"N#CC1CCN(C(=O)c2ccc3cc(Oc4ccc(C(F)(F)F)cn4)ccc3n2)CC1 [Example 474, 1-[(6-{[5-(trifluoromethyl)pyridin-2-yl]oxy}quinolin-2-yl)carbonyl]piperidine-4-carbonitrile]",9.1
3,"O=C(c1ccc2cc(Oc3ccc(C(F)(F)F)cn3)ccc2n1)N1CCC(=O)N2C[C@@H](O)C[C@H]2C1 [Example 212, (8S,9aS)-8-hydroxy-2-[(6-{[5-(trifluoromethyl)pyridin-2-yl]oxy}quinolin-2-yl)carbonyl]octahydro-5H-pyrrolo[1,2-a][1,4]diazepin-5-one]",> 20
4,"N#Cc1ccc(Oc2ccc3nc(C(=O)N4CCNCC4)ccc3c2)nc1 [Example 328, 6-{[2-(piperazin-1-ylcarbonyl)quinolin-6-yl]oxy}nicotinonitrile]",> 20
5,"CC1(Oc2ccccc2)CN(C(=O)c2ccc3cc(Oc4ccc(C(F)(F)F)cn4)ccc3n2)C1 [Example 200, (3-methyl-3-phenoxyazetidin-1-yl)(6-{[5-(trifluoromethyl)pyridin-2-yl]oxy}quinolin-2-yl)methanone]",> 20
6,"CS(=O)(=O)[C@@H]1CN(C(=O)c2ccc3cc(Oc4ccc(C(F)(F)F)cn4)ccc3n2)C[C@H]1O (relative stereo) [Example 351, [trans-3-hydroxy-4-(methylsulfonyl)pyrrolidin-1-yl](6-{[5-(trifluoromethyl)pyridin-2-yl]oxy}quinolin-2-yl)methanone]",3.6
7,"O=C(c1ccc2cc(Oc3ccc(C(F)(F)F)cn3)ccc2n1)N1CCC(F)(COc2ccccc2)C1 (centres unmarked) [Example 491, [3-fluoro-3-(phenoxymethyl)pyrrolidin-1-yl](6-{[5-(trifluoromethyl)pyridin-2-yl]oxy}quinolin-2-yl)methanone]",4.99
8,"CC1CN(C(=O)c2ccc3cc(Oc4ccc(C(F)(F)F)cn4)ccc3n2)CC(C)N1 (centres unmarked) [Example 552, (3,5-dimethylpiperazin-1-yl)(6-{[5-(trifluoromethyl)pyridin-2-yl]oxy}quinolin-2-yl)methanone]",0.615
9,"O=C(c1ccc2cc(Oc3ccc(C(F)(F)F)cn3)ccc2n1)N1CCN(c2cccnc2)CC1 [Example 269, [4-(pyridin-3-yl)piperazin-1-yl](6-{[5-(trifluoromethyl)pyridin-2-yl]oxy}quinolin-2-yl)methanone]",3.07
10,"N#CC1CN(C(=O)c2ccc3cc(Oc4ccc(C(F)(F)F)cn4)ccc3n2)C1 [Example 367, 1-[(6-{[5-(trifluoromethyl)pyridin-2-yl]oxy}quinolin-2-yl)carbonyl]azetidine-3-carbonitrile]",2.53
11,"O=C(c1ccc2cc(Oc3ccc(C(F)(F)F)cn3)ccc2n1)N(C1CCOCC1)C1CCOCC1 [Example 376, N,N-di(tetrahydro-2H-pyran-4-yl)-6-{[5-(trifluoromethyl)pyridin-2-yl]oxy}quinoline-2-carboxamide]",3.06
12,"O=C(NCCNc1ccccn1)c1ccc2cc(Oc3ccc(C(F)(F)F)cn3)ccc2n1 [Example 422, N-[2-(pyridin-2-ylamino)ethyl]-6-{[5-(trifluoromethyl)pyridin-2-yl]oxy}quinoline-2-carboxamide]",0.617
13,"NC(=O)CNC(=O)c1ccc2cc(Oc3ccc(C(F)(F)F)cn3)ccc2n1 [Example 150, N-(2-amino-2-oxoethyl)-6-{[5-(trifluoromethyl)pyridin-2-yl]oxy}quinoline-2-carboxamide]",2.28
14,"CN(C(=O)c1ccc2cc(Oc3ccc(C(F)(F)F)cn3)ccc2n1)C1CCOCC1 [Example 411, N-methyl-N-(tetrahydro-2H-pyran-4-yl)-6-{[5-(trifluoromethyl)pyridin-2-yl]oxy}quinoline-2-carboxamide]",14.1
